Results published in patent US12509452B2, “Substituted-isoxazoline-containing aromatic compound, preparation method therefor, herbicidal composition and use thereof” (QINGDAO KINGAGROOT CHEMICAL COMPOUND CO., LTD., priority 2019, dated 2025).

How the values were obtained:
Test in all cases: weeding effect in post-emergence stage
Format in all cases: in vivo
Conditions in all cases: dose 15 g a.i./ha
Conyza japonica = test system: Conyza japonica
Outline: (§1)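 Weeds grown in soil-filled pots in a greenhouse, sprayed at the 2-3 leaf stage (2 weeks after sowing) with compound in acetone/Tween 80 plus methyl oleate EC (1.5 L/ha) at 500 to 7.5 g a.i./ha. Fresh-weight growth control assessed 3 weeks later, triplicate means, scored on a 0-5 scale.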

Alopecurus japonicus = test system: Alopecurus japonicus
Outline: as §1

Rorippa indica = test system: Rorippa indica
Outline: as §1

Beckmannia syzigachne = test system: Beckmannia syzigachne
Outline: as §1

## CC(C)COC(=O)C1(C)CC(c2cc(-n3c(=O)n(C)c(=S)n(C)c3=O)c(F)cc2Cl)=NO1 (stereo not drawn) [Compound 1-73]
Conyza japonica
  weeding effect in post-emergence stage, Conyza japonica (activity level): 5 (Level 5: growth control rate is above 85%)
Alopecurus japonicus
  weeding effect in post-emergence stage, Alopecurus japonicus (activity level): 5 (Level 5: growth control rate is above 85%)
Rorippa indica
  weeding effect in post-emergence stage, Rorippa indica (activity level): 5 (Level 5: growth control rate is above 85%)
Beckmannia syzigachne
  weeding effect in post-emergence stage, Beckmannia syzigachne (activity level): 5 (Level 5: growth control rate is above 85%)

## Cn1c(=S)n(C)c(=O)n(-c2cc(C3=NOC(C)(C(=O)OC(C)(C)C)C3)c(Cl)cc2F)c1=O (stereo not drawn) [Compound 1-74]
Conyza japonica
  weeding effect in post-emergence stage, Conyza japonica (activity level): 5 (Level 5: growth control rate is above 85%)
Alopecurus japonicus
  weeding effect in post-emergence stage, Alopecurus japonicus (activity level): 5 (Level 5: growth control rate is above 85%)
Rorippa indica
  weeding effect in post-emergence stage, Rorippa indica (activity level): 5 (Level 5: growth control rate is above 85%)
Beckmannia syzigachne
  weeding effect in post-emergence stage, Beckmannia syzigachne (activity level): 5 (Level 5: growth control rate is above 85%)

## CCCCCCC(C)OC(=O)C1(C)CC(c2cc(-n3c(=O)n(C)c(=S)n(C)c3=O)c(F)cc2Cl)=NO1 (stereo not drawn) [Compound 1-75]
Conyza japonica
  weeding effect in post-emergence stage, Conyza japonica (activity level): 5 (Level 5: growth control rate is above 85%)
Alopecurus japonicus
  weeding effect in post-emergence stage, Alopecurus japonicus (activity level): 5 (Level 5: growth control rate is above 85%)
Rorippa indica
  weeding effect in post-emergence stage, Rorippa indica (activity level): 5 (Level 5: growth control rate is above 85%)
Beckmannia syzigachne
  weeding effect in post-emergence stage, Beckmannia syzigachne (activity level): 5 (Level 5: growth control rate is above 85%)

## C=CCOC(=O)C1(C)CC(c2cc(-n3c(=O)n(C)c(=S)n(C)c3=O)c(F)cc2Cl)=NO1 (stereo not drawn) [Compound 1-76]
Conyza japonica
  weeding effect in post-emergence stage, Conyza japonica (activity level): 5 (Level 5: growth control rate is above 85%)
Alopecurus japonicus
  weeding effect in post-emergence stage, Alopecurus japonicus (activity level): 5 (Level 5: growth control rate is above 85%)
Rorippa indica
  weeding effect in post-emergence stage, Rorippa indica (activity level): 5 (Level 5: growth control rate is above 85%)
Beckmannia syzigachne
  weeding effect in post-emergence stage, Beckmannia syzigachne (activity level): 5 (Level 5: growth control rate is above 85%)

## C#CCOC(=O)C1(C)CC(c2cc(-n3c(=O)n(C)c(=S)n(C)c3=O)c(F)cc2Cl)=NO1 (stereo not drawn) [Compound 1-79]
Conyza japonica
  weeding effect in post-emergence stage, Conyza japonica (activity level): 5 (Level 5: growth control rate is above 85%)
Alopecurus japonicus
  weeding effect in post-emergence stage, Alopecurus japonicus (activity level): 5 (Level 5: growth control rate is above 85%)
Rorippa indica
  weeding effect in post-emergence stage, Rorippa indica (activity level): 5 (Level 5: growth control rate is above 85%)
Beckmannia syzigachne
  weeding effect in post-emergence stage, Beckmannia syzigachne (activity level): 5 (Level 5: growth control rate is above 85%)

## CC#CCOC(=O)C1(C)CC(c2cc(-n3c(=O)n(C)c(=S)n(C)c3=O)c(F)cc2Cl)=NO1 (stereo not drawn) [Compound 1-80]
Conyza japonica
  weeding effect in post-emergence stage, Conyza japonica (activity level): 5 (Level 5: growth control rate is above 85%)
Alopecurus japonicus
  weeding effect in post-emergence stage, Alopecurus japonicus (activity level): 5 (Level 5: growth control rate is above 85%)
Rorippa indica
  weeding effect in post-emergence stage, Rorippa indica (activity level): 5 (Level 5: growth control rate is above 85%)
Beckmannia syzigachne
  weeding effect in post-emergence stage, Beckmannia syzigachne (activity level): 5 (Level 5: growth control rate is above 85%)

## C#CCCOC(=O)C1(C)CC(c2cc(-n3c(=O)n(C)c(=S)n(C)c3=O)c(F)cc2Cl)=NO1 (stereo not drawn) [Compound 1-81]
Conyza japonica
  weeding effect in post-emergence stage, Conyza japonica (activity level): 5 (Level 5: growth control rate is above 85%)
Alopecurus japonicus
  weeding effect in post-emergence stage, Alopecurus japonicus (activity level): 5 (Level 5: growth control rate is above 85%)
Rorippa indica
  weeding effect in post-emergence stage, Rorippa indica (activity level): 5 (Level 5: growth control rate is above 85%)
Beckmannia syzigachne
  weeding effect in post-emergence stage, Beckmannia syzigachne (activity level): 5 (Level 5: growth control rate is above 85%)

## C#CC(C)OC(=O)C1(C)CC(c2cc(-n3c(=O)n(C)c(=S)n(C)c3=O)c(F)cc2Cl)=NO1 (stereo not drawn) [Compound 1-82]
Conyza japonica
  weeding effect in post-emergence stage, Conyza japonica (activity level): 5 (Level 5: growth control rate is above 85%)
Alopecurus japonicus
  weeding effect in post-emergence stage, Alopecurus japonicus (activity level): 5 (Level 5: growth control rate is above 85%)
Rorippa indica
  weeding effect in post-emergence stage, Rorippa indica (activity level): 5 (Level 5: growth control rate is above 85%)
Beckmannia syzigachne
  weeding effect in post-emergence stage, Beckmannia syzigachne (activity level): 5 (Level 5: growth control rate is above 85%)

## Cn1c(=S)n(C)c(=O)n(-c2cc(C3=NOC(C)(C(=O)OC4CC4)C3)c(Cl)cc2F)c1=O (stereo not drawn) [Compound 1-83]
Conyza japonica
  weeding effect in post-emergence stage, Conyza japonica (activity level): 5 (Level 5: growth control rate is above 85%)
Alopecurus japonicus
  weeding effect in post-emergence stage, Alopecurus japonicus (activity level): 5 (Level 5: growth control rate is above 85%)
Rorippa indica
  weeding effect in post-emergence stage, Rorippa indica (activity level): 5 (Level 5: growth control rate is above 85%)
Beckmannia syzigachne
  weeding effect in post-emergence stage, Beckmannia syzigachne (activity level): 5 (Level 5: growth control rate is above 85%)

## Cn1c(=S)n(C)c(=O)n(-c2cc(C3=NOC(C)(C(=O)OCC4CC4)C3)c(Cl)cc2F)c1=O (stereo not drawn) [Compound 1-84]
Conyza japonica
  weeding effect in post-emergence stage, Conyza japonica (activity level): 5 (Level 5: growth control rate is above 85%)
Alopecurus japonicus
  weeding effect in post-emergence stage, Alopecurus japonicus (activity level): 5 (Level 5: growth control rate is above 85%)
Rorippa indica
  weeding effect in post-emergence stage, Rorippa indica (activity level): 5 (Level 5: growth control rate is above 85%)
Beckmannia syzigachne
  weeding effect in post-emergence stage, Beckmannia syzigachne (activity level): 5 (Level 5: growth control rate is above 85%)

## Cn1c(=S)n(C)c(=O)n(-c2cc(C3=NOC(C)(C(=O)OCC(F)F)C3)c(Cl)cc2F)c1=O (stereo not drawn) [Compound 1-86]
Conyza japonica
  weeding effect in post-emergence stage, Conyza japonica (activity level): 5 (Level 5: growth control rate is above 85%)
Alopecurus japonicus
  weeding effect in post-emergence stage, Alopecurus japonicus (activity level): 5 (Level 5: growth control rate is above 85%)
Rorippa indica
  weeding effect in post-emergence stage, Rorippa indica (activity level): 5 (Level 5: growth control rate is above 85%)
Beckmannia syzigachne
  weeding effect in post-emergence stage, Beckmannia syzigachne (activity level): 5 (Level 5: growth control rate is above 85%)

## Cn1c(=S)n(C)c(=O)n(-c2cc(C3=NOC(C)(C(=O)OCC(F)(F)F)C3)c(Cl)cc2F)c1=O (stereo not drawn) [Compound 1-87]
Conyza japonica
  weeding effect in post-emergence stage, Conyza japonica (activity level): 5 (Level 5: growth control rate is above 85%)
Alopecurus japonicus
  weeding effect in post-emergence stage, Alopecurus japonicus (activity level): 5 (Level 5: growth control rate is above 85%)
Rorippa indica
  weeding effect in post-emergence stage, Rorippa indica (activity level): 5 (Level 5: growth control rate is above 85%)
Beckmannia syzigachne
  weeding effect in post-emergence stage, Beckmannia syzigachne (activity level): 5 (Level 5: growth control rate is above 85%)

## Cn1c(=S)n(C)c(=O)n(-c2cc(C3=NOC(C)(C(=O)OCCCF)C3)c(Cl)cc2F)c1=O (stereo not drawn) [Compound 1-88]
Conyza japonica
  weeding effect in post-emergence stage, Conyza japonica (activity level): 5 (Level 5: growth control rate is above 85%)
Alopecurus japonicus
  weeding effect in post-emergence stage, Alopecurus japonicus (activity level): 5 (Level 5: growth control rate is above 85%)
Rorippa indica
  weeding effect in post-emergence stage, Rorippa indica (activity level): 5 (Level 5: growth control rate is above 85%)
Beckmannia syzigachne
  weeding effect in post-emergence stage, Beckmannia syzigachne (activity level): 5 (Level 5: growth control rate is above 85%)

## Cn1c(=S)n(C)c(=O)n(-c2cc(C3=NOC(C)(C(=O)OCC(C)(F)F)C3)c(Cl)cc2F)c1=O (stereo not drawn) [Compound 1-89]
Conyza japonica
  weeding effect in post-emergence stage, Conyza japonica (activity level): 5 (Level 5: growth control rate is above 85%)
Alopecurus japonicus
  weeding effect in post-emergence stage, Alopecurus japonicus (activity level): 5 (Level 5: growth control rate is above 85%)
Rorippa indica
  weeding effect in post-emergence stage, Rorippa indica (activity level): 5 (Level 5: growth control rate is above 85%)
Beckmannia syzigachne
  weeding effect in post-emergence stage, Beckmannia syzigachne (activity level): 5 (Level 5: growth control rate is above 85%)

## Cn1c(=S)n(C)c(=O)n(-c2cc(C3=NOC(C)(C(=O)OCCC(F)(F)F)C3)c(Cl)cc2F)c1=O (stereo not drawn) [Compound 1-90]
Conyza japonica
  weeding effect in post-emergence stage, Conyza japonica (activity level): 5 (Level 5: growth control rate is above 85%)
Alopecurus japonicus
  weeding effect in post-emergence stage, Alopecurus japonicus (activity level): 5 (Level 5: growth control rate is above 85%)
Rorippa indica
  weeding effect in post-emergence stage, Rorippa indica (activity level): 5 (Level 5: growth control rate is above 85%)
Beckmannia syzigachne
  weeding effect in post-emergence stage, Beckmannia syzigachne (activity level): 5 (Level 5: growth control rate is above 85%)

## Cn1c(=S)n(C)c(=O)n(-c2cc(C3=NOC(C)(C(=O)OCC=CCl)C3)c(Cl)cc2F)c1=O (stereo not drawn) [Compound 1-92]
Conyza japonica
  weeding effect in post-emergence stage, Conyza japonica (activity level): 5 (Level 5: growth control rate is above 85%)
Alopecurus japonicus
  weeding effect in post-emergence stage, Alopecurus japonicus (activity level): 5 (Level 5: growth control rate is above 85%)
Rorippa indica
  weeding effect in post-emergence stage, Rorippa indica (activity level): 5 (Level 5: growth control rate is above 85%)
Beckmannia syzigachne
  weeding effect in post-emergence stage, Beckmannia syzigachne (activity level): 5 (Level 5: growth control rate is above 85%)

## CCOC(=O)CCC1(C)CC(c2cc(-n3c(=O)n(C)c(=S)n(C)c3=O)c(F)cc2Cl)=NO1 (stereo not drawn) [Compound 1-94]
Conyza japonica
  weeding effect in post-emergence stage, Conyza japonica (activity level): 5 (Level 5: growth control rate is above 85%)
Alopecurus japonicus
  weeding effect in post-emergence stage, Alopecurus japonicus (activity level): 5 (Level 5: growth control rate is above 85%)
Rorippa indica
  weeding effect in post-emergence stage, Rorippa indica (activity level): 5 (Level 5: growth control rate is above 85%)
Beckmannia syzigachne
  weeding effect in post-emergence stage, Beckmannia syzigachne (activity level): 5 (Level 5: growth control rate is above 85%)

## CCOC(=O)CCCC1(C)CC(c2cc(-n3c(=O)n(C)c(=S)n(C)c3=O)c(F)cc2Cl)=NO1 (stereo not drawn) [Compound 1-96]
Conyza japonica
  weeding effect in post-emergence stage, Conyza japonica (activity level): 5 (Level 5: growth control rate is above 85%)
Alopecurus japonicus
  weeding effect in post-emergence stage, Alopecurus japonicus (activity level): 5 (Level 5: growth control rate is above 85%)
Rorippa indica
  weeding effect in post-emergence stage, Rorippa indica (activity level): 5 (Level 5: growth control rate is above 85%)
Beckmannia syzigachne
  weeding effect in post-emergence stage, Beckmannia syzigachne (activity level): 5 (Level 5: growth control rate is above 85%)
